Data published in US20250312462A1, “PAK1 DEGRADERS AND METHODS OF USE THEREOF” (INSTITUTE FOR CANCER RESEARCH D/B/A THE RESEARCH INSTITUTE …, priority 2022, published 2025).

Legend:
ROCK2 = ROCK2 (Homo sapiens, UniProt O75116); test: KINOMEscan; conditions: read-out: Percent Control
Description: (§1) The kinase engagement assay (KINOMEscan®) was performed by DiscoverX assessing binding abilities toward a set of kinases.

CDK5 = CDK5 (Homo sapiens, UniProt Q00535); test: KINOMEscan; conditions: read-out: Percent Control
Description: as §1

AMPK-alpha2 = AMPK-alpha2 (Homo sapiens, UniProt P54646); test: KINOMEscan; conditions: read-out: Percent Control
Description: as §1

MKNK2 = MKNK2 (Homo sapiens, UniProt Q9HBH9); test: KINOMEscan; conditions: read-out: Percent Control
Description: as §1

SGK = SGK (Homo sapiens, UniProt O00141); test: KINOMEscan; conditions: read-out: Percent Control
Description: as §1

ZAK = ZAK (Homo sapiens, UniProt Q9NYL2); test: KINOMEscan; conditions: read-out: Percent Control
Description: as §1

FGFR2 = FGFR2 (Homo sapiens, UniProt P21802); test: KINOMEscan; conditions: read-out: Percent Control
Description: as §1

SRPK3 = SRPK3 (Homo sapiens, UniProt Q9UPE1); test: KINOMEscan; conditions: read-out: Percent Control
Description: as §1

PAK4 [1] = target: T1, PAK4 (Homo sapiens, UniProt O96013); test: Z'-LYTE FRET kinase inhibition assay; type: biochemical; set-up: purchased Invitrogen
Source text: […]. […] […].

MYLK4 = MYLK4 (Homo sapiens, UniProt Q86YV6); test: KINOMEscan; conditions: read-out: Percent Control
Description: as §1

[2] = target: RPS6KA4(Kin.Dom.1-N-terminal) (Homo sapiens, UniProt O75676); test: KINOMEscan; conditions: read-out: Percent Control
Description: as §1

EPHB4 = EPHB4 (Homo sapiens, UniProt P54760); test: KINOMEscan; conditions: read-out: Percent Control
Description: as §1

PAK4 [3] = target: T1, PAK4; test: KINOMEscan; conditions: read-out: Percent Control
Description: as §1

[4] = target: ABL1(Q252H)-phosphorylated (Homo sapiens, UniProt P00519, Q252H); test: KINOMEscan; conditions: read-out: Percent Control
Description: as §1

FGFR4 = FGFR4 (Homo sapiens, UniProt P22455); test: KINOMEscan; conditions: read-out: Percent Control
Description: as §1

DYRK1A = DYRK1A (Homo sapiens, UniProt Q13627); test: KINOMEscan; conditions: read-out: Percent Control
Description: as §1

AAK1 = AAK1 (Homo sapiens, UniProt Q2M2I8); test: KINOMEscan; conditions: read-out: Percent Control
Description: as §1

GCN2(Kin.Dom.2, S808G) = GCN2(Kin.Dom.2, S808G) (Homo sapiens, UniProt Q9P2K8, S808G); test: KINOMEscan; conditions: read-out: Percent Control
Description: as §1

SLK = SLK (Homo sapiens, UniProt Q9H2G2); test: KINOMEscan; conditions: read-out: Percent Control
Description: as §1

FLT3(R834Q) = FLT3(R834Q) (Homo sapiens, UniProt P36888, R834Q); test: KINOMEscan; conditions: read-out: Percent Control
Description: as §1

LTK = LTK (Homo sapiens, UniProt P29376); test: KINOMEscan; conditions: read-out: Percent Control
Description: as §1

PRKD3 = PRKD3 (Homo sapiens, UniProt O94806); test: KINOMEscan; conditions: read-out: Percent Control
Description: as §1

PAK7 = PAK7 (Homo sapiens, UniProt Q9P286); test: KINOMEscan; conditions: read-out: Percent Control
Description: as §1

SIK2 = SIK2 (Homo sapiens, UniProt Q9H0K1); test: KINOMEscan; conditions: read-out: Percent Control
Description: as §1

CSNK2A2 = CSNK2A2 (Homo sapiens, UniProt P19784); test: KINOMEscan; conditions: read-out: Percent Control
Description: as §1

[5] = target: ABL1(H396P)-phosphorylated (Homo sapiens, UniProt P00519, H396P); test: KINOMEscan; conditions: read-out: Percent Control
Description: as §1

PRKD2 = PRKD2 (Homo sapiens, UniProt Q9BZL6); test: KINOMEscan; conditions: read-out: Percent Control
Description: as §1

CDC2L5 = target: T2, CDC2L5 (Homo sapiens, UniProt Q14004); test: KINOMEscan; type: binding; conditions: read-out: Percent Control
T2 construct: purchased DiscoverX

NEK6 = NEK6 (Homo sapiens, UniProt Q9HC98); test: KINOMEscan; conditions: read-out: Percent Control
Description: as §1

PFPK5(P. falciparum) = target: T3, PFPK5(P. falciparum) (Plasmodium falciparum, UniProt P61075); test: KINOMEscan; type: binding; conditions: read-out: Percent Control
T3 construct: purchased DiscoverX

MARK4 = MARK4 (Homo sapiens, UniProt Q96L34); test: KINOMEscan; conditions: read-out: Percent Control
Description: as §1

MST1R = MST1R (Homo sapiens, UniProt Q04912); test: KINOMEscan; conditions: read-out: Percent Control
Description: as §1

VPS34 = VPS34 (Homo sapiens, UniProt Q8NEB9); test: KINOMEscan; conditions: read-out: Percent Control
Description: as §1

CDK3 = CDK3 (Homo sapiens, UniProt Q00526); test: KINOMEscan; conditions: read-out: Percent Control
Description: as §1

PDPK1 = PDPK1 (Homo sapiens, UniProt O15530); test: KINOMEscan; conditions: read-out: Percent Control
Description: as §1

MEK1 = MEK1 (Homo sapiens, UniProt Q02750); test: KINOMEscan; conditions: read-out: Percent Control
Description: as §1

PIK3CA(H1047L) = PIK3CA(H1047L) (Homo sapiens, UniProt P42336, H1047L); test: KINOMEscan; conditions: read-out: Percent Control
Description: as §1

DCAMKL2 = DCAMKL2 (Homo sapiens, UniProt Q8N568); test: KINOMEscan; conditions: read-out: Percent Control
Description: as §1

T1 sequence (O96013 whole entry): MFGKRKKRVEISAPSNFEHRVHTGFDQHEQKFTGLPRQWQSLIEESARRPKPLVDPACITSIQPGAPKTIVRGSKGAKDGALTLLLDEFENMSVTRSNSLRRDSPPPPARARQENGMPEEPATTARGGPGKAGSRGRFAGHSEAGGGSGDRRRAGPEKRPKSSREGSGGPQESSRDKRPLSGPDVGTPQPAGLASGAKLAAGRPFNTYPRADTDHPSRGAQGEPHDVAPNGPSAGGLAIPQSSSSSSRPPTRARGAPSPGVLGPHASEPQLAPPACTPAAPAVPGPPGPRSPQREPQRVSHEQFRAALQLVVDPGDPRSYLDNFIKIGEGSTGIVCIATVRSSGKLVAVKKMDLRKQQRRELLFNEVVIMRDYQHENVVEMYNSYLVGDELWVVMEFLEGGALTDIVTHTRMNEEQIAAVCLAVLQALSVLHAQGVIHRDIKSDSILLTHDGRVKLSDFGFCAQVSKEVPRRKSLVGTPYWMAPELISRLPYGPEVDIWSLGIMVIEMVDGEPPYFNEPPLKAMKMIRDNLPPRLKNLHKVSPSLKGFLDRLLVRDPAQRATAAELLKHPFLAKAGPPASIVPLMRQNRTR
Chain of PIK3CA(H1047L) (P42336 whole entry H1047L): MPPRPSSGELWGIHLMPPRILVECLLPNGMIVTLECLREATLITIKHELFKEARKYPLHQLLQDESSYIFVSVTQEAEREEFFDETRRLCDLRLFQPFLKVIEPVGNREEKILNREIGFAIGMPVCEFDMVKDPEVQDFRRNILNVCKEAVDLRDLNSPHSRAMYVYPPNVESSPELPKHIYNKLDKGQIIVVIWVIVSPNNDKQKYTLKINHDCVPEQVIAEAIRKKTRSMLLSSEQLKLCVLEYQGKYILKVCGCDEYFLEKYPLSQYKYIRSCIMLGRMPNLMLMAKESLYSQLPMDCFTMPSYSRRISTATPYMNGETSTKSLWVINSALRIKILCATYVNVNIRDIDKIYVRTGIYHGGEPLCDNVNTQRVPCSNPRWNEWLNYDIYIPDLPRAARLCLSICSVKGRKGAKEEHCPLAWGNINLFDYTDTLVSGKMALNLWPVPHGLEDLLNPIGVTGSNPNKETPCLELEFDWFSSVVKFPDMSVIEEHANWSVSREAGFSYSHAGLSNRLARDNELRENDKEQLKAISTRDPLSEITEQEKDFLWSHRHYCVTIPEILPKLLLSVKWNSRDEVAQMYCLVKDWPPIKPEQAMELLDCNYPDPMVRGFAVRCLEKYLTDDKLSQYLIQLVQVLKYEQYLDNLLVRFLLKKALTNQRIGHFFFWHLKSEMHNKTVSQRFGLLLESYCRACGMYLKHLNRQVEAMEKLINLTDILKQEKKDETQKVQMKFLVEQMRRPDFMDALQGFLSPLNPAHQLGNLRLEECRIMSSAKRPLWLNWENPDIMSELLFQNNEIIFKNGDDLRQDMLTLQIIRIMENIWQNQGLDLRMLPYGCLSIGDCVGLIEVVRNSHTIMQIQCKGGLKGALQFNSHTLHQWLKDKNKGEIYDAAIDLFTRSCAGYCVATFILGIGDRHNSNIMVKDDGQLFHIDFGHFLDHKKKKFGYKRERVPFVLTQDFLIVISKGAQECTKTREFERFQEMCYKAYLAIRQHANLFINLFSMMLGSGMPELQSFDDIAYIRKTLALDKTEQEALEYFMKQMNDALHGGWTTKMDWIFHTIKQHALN
Chain of PDPK1 (O15530 whole entry): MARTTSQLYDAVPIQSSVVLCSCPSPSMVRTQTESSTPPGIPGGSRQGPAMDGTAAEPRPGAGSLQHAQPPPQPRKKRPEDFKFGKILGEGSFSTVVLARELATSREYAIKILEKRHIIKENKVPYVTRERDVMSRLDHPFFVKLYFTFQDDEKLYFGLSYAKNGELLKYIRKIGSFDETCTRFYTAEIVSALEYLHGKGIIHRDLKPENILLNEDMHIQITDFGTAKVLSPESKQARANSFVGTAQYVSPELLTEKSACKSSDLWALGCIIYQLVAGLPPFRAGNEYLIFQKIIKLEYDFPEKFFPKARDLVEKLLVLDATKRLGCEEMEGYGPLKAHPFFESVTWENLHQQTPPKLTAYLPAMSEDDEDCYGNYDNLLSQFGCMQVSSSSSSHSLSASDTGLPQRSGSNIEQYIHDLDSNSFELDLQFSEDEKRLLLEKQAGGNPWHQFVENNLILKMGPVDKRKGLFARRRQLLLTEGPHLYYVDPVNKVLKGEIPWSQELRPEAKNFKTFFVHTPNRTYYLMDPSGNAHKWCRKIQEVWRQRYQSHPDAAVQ
Chain of VPS34 (Q8NEB9 whole entry): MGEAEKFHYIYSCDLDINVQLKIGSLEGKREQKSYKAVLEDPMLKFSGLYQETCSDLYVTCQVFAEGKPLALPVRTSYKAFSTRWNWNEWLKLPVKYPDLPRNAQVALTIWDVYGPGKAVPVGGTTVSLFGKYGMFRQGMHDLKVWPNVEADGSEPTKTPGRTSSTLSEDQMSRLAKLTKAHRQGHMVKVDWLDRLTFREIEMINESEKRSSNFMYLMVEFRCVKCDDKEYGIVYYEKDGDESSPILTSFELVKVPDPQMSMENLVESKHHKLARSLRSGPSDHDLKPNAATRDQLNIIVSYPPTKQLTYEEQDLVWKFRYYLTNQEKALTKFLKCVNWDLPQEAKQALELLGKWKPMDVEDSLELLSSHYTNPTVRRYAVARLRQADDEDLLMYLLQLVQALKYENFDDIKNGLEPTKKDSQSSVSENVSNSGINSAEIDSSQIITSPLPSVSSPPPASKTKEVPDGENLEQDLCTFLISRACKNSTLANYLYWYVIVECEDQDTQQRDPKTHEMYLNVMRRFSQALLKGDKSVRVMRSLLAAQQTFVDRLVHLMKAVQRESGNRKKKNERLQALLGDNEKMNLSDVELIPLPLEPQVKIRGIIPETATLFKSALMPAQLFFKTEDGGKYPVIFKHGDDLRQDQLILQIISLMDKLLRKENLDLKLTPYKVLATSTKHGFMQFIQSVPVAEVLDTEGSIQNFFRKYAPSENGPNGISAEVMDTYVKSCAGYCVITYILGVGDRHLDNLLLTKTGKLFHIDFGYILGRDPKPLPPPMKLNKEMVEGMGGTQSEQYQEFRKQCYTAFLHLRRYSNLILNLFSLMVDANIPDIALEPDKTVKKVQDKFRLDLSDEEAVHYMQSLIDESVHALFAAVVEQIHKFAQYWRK
Chain of NEK6 (Q9HC98 whole entry): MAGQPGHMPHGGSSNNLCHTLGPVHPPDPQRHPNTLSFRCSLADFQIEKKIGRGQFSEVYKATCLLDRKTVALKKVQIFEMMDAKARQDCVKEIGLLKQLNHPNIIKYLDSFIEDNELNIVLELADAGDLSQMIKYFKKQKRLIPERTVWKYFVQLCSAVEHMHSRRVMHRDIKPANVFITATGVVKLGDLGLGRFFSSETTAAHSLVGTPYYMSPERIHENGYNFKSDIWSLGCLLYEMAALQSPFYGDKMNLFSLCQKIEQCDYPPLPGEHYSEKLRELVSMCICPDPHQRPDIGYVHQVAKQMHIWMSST
Chain of PRKD3 (O94806 whole entry): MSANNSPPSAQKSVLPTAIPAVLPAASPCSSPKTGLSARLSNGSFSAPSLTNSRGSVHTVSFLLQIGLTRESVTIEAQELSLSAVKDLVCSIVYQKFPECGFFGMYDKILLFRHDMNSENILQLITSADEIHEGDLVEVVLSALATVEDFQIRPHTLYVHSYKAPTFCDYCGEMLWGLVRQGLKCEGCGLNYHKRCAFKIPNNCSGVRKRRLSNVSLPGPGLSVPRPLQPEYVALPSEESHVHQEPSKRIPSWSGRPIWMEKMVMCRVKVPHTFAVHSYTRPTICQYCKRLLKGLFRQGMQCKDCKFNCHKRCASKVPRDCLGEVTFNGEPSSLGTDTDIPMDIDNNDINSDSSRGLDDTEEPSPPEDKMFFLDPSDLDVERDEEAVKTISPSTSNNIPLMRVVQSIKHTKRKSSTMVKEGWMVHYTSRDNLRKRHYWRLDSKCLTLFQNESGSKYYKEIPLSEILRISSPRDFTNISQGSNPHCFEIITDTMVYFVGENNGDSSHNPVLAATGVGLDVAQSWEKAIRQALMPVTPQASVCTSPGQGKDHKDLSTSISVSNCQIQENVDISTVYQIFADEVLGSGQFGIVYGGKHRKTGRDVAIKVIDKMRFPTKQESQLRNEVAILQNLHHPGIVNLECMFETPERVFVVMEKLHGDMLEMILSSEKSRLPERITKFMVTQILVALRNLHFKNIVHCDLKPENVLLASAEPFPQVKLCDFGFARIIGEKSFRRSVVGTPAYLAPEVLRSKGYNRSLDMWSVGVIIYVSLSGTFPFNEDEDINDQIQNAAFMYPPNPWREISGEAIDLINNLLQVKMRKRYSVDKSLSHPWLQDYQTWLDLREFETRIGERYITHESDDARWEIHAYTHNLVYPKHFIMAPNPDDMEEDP
Chain of RPS6KA4(Kin.Dom.1-N-terminal) (O75676 33-301 limits assumed): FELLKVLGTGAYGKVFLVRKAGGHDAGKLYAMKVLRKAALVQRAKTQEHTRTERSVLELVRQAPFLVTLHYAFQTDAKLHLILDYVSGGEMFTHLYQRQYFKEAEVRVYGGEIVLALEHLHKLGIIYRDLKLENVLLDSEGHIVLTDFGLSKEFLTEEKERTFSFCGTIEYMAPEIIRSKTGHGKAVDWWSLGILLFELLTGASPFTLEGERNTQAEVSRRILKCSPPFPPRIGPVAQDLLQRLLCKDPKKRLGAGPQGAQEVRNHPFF
Chain of SGK (O00141 whole entry): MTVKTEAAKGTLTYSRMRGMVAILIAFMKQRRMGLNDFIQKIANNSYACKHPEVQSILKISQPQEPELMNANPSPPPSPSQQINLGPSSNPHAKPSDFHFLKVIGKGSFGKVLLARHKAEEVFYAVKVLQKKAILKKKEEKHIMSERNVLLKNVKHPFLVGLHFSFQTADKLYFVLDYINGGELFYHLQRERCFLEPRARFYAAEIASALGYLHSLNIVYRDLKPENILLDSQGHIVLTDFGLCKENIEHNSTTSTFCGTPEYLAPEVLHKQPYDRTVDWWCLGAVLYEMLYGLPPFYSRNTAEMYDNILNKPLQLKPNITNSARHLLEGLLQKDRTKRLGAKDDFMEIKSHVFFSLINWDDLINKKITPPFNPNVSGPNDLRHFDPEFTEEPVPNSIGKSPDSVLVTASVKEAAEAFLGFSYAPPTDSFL

Work on O=C1CCC(N2C(=O)c3cccc(NCCCCCCCCNC(=O)N4CC[C@H](NC5=Nc6cc(F)ccc6N(CC(F)F)c6ccc(Cl)cc65)C4)c3C2=O)C(=O)N1 (stereo partly drawn) [BJG-05-039, (3S)-3-((2-Chloro-5-(2,2-difluoroethyl)-8-fluoro-5H-dibenzo[b,e][1,4]diazepin-11-yl)amino)-N-(8-((2-(2,6-dioxopiperidin-3-yl)-1,3-dioxoisoindolin-4-yl)amino)octyl)pyrrolidine-1-carboxamide] yielded a remaining binding at 10 µM (ROCK2) of 100%, a remaining binding at 10 µM (CDK5) of 90% and a remaining binding at 10 µM (AMPK-alpha2) of 100%. For the same compound, the remaining binding at 10 µM (MKNK2) was 94%, the remaining binding at 10 µM (SGK) was 100% and the remaining binding at 10 µM (ZAK) was 97%. It also gave a remaining binding at 10 µM (FGFR2) of 77%, a remaining binding at 10 µM (SRPK3) of 93% and an IC50 (PAK4 [1]) of over 10 µM. It also gave a remaining binding at 10 µM (MYLK4) of 100%, a remaining binding at 10 µM [2] of 59% and a remaining binding at 10 µM (EPHB4) of 91%. For the same compound, the remaining binding at 10 µM (PAK4 [3]) was 75%, the remaining binding at 10 µM [4] was 100% and the remaining binding at 10 µM (FGFR4) was 68%. For the same compound, the remaining binding at 10 µM (DYRK1A) was 100%, the remaining binding at 10 µM (AAK1) was 48% and the remaining binding at 10 µM (GCN2(Kin.Dom.2, S808G)) was 56%. For the same compound, the remaining binding at 10 µM (SLK) was 91%, the remaining binding at 10 µM (FLT3(R834Q)) was 100% and the remaining binding at 10 µM (LTK) was 84%. It also gave a remaining binding at 10 µM (PRKD3) of 37%, a remaining binding at 10 µM (PAK7) of 42% and a remaining binding at 10 µM (SIK2) of 97%. It also gave a remaining binding at 10 µM (CSNK2A2) of 78%, a remaining binding at 10 µM [5] of 100% and a remaining binding at 10 µM (PRKD2) of 53%. The remaining binding at 10 µM (CDC2L5) was 82%, the remaining binding at 10 µM (NEK6) was 91% and the remaining binding at 10 µM (PFPK5(P. falciparum)) was 100%. For the same compound, the remaining binding at 10 µM (MARK4) was 100%, the remaining binding at 10 µM (MST1R) was 97% and the remaining binding at 10 µM (VPS34) was 100%. It also gave a remaining binding at 10 µM (CDK3) of 74%, a remaining binding at 10 µM (PDPK1) of 86% and a remaining binding at 10 µM (MEK1) of 100%. The remaining binding at 10 µM (PIK3CA(H1047L)) was 63% and the remaining binding at 10 µM (DCAMKL2) was 92%.
